Experimental data published in ChEMBL document CHEMBL3727348, “3-(aryl or heteroaryl) methyleneindolin-2-one derivatives as inhibitors of cancer stem cell pathway kinases for the treatment of cancer” (2014).

Tested on: FaDu
Assay: Cytotoxic activity against human FADU cancer stem cells incubated for 72 hrs by Cell-titer-Glo luminescence assay
Type: functional, cell-based
Conditions: not given

Compound | IC50 [µM]
Cc1cc(C)c(/C=C2\C(=O)Nc3ccc(-c4ncccc4C)cc32)[nH]1 | 41.1
Cc1[nH]c(/C=C2\C(=O)Nc3ccc(-c4csc(-c5ccccc5)n4)cc32)c(C)c1S(=O)(=O)N1CCCC1 | 6.56
CCN(CC)CCNC(=O)c1c(C)[nH]c(/C=C2\C(=O)Nc3cc(-c4nccc5ccccc45)ccc32)c1C | 24.4
CCN(CC)CCNC(=O)c1c(C)[nH]c(/C=C2\C(=O)Nc3cc(-c4ccc(-c5ccccc5)cn4)ccc32)c1C | 1.18
Cc1cc(C)c(/C=C2\C(=O)Nc3ccc(-c4cnc5cccnn45)cc32)[nH]1 | 1.55
CCN(CC)CCNC(=O)c1c(C)[nH]c(/C=C2\C(=O)Nc3cc(-c4ccc(-c5ccccc5)nc4)ccc32)c1C | 1.12
Cc1cc(C)c(/C=C2\C(=O)Nc3cc(-c4cnc5ccccc5n4)ccc32)[nH]1 | 8.8
Cc1cc(C)c(/C=C2\C(=O)Nc3ccc(-c4cccc5ncccc45)cc32)[nH]1 | 13.1
CCN(CC)CCNC(=O)c1c(C)[nH]c(/C=C2\C(=O)Nc3ccc(-c4csc(-c5ccc(CCC(=O)O)cc5)n4)cc32)c1C | 4.88
O=C1Nc2ccc(-c3csc(-c4ccccc4)n3)cc2/C1=C/c1cnc[nH]1 | 6.32
Cc1cc(C)c(/C=C2\C(=O)Nc3ccc(-c4cnsc4)cc32)[nH]1 | 43.4
Cc1ccc(-c2nc(-c3ccc4c(c3)/C(=C/c3[nH]c(C)c(C(=O)N5CCN(C)CC5)c3C)C(=O)N4)cs2)cc1 | 1.98
Cc1[nH]c(/C=C2\C(=O)Nc3ccc(-c4cnn(-c5ccccc5)c4)cc32)c(C)c1C(=O)N1CCN(C)CC1 | 0.31

Tested on: FaDu
Assay: Cytotoxic activity against human FADU bulk cells incubated for 72 hrs by Cell-titer-Glo luminescence assay
Type: functional, cell-based
Conditions: not given

Compound | IC50 [µM]
Cc1[nH]c(/C=C2\C(=O)Nc3ccc(-c4csc(-c5ccccc5)n4)cc32)c(C)c1S(=O)(=O)N1CCCC1 | 5.48
CCN(CC)CCNC(=O)c1c(C)[nH]c(/C=C2\C(=O)Nc3cc(-c4nccc5ccccc45)ccc32)c1C | 9.12
CCN(CC)CCNC(=O)c1c(C)[nH]c(/C=C2\C(=O)Nc3cc(-c4ccc(-c5ccccc5)cn4)ccc32)c1C | 19.8
Cc1cc(C)c(/C=C2\C(=O)Nc3ccc(-c4cnc5cccnn45)cc32)[nH]1 | 5.23
Cc1cc(C)c(/C=C2\C(=O)Nc3ccc(-c4cccc5ncccc45)cc32)[nH]1 | 13.4
O=C1Nc2ccc(-c3csc(-c4ccccc4)n3)cc2/C1=C/c1cnc[nH]1 | 6.14
Cc1cc(C)c(/C=C2\C(=O)Nc3ccc(-c4cnsc4)cc32)[nH]1 | 26.7
Cc1ccc(-c2nc(-c3ccc4c(c3)/C(=C/c3[nH]c(C)c(C(=O)N5CCN(C)CC5)c3C)C(=O)N4)cs2)cc1 | 7.87
Cc1[nH]c(/C=C2\C(=O)Nc3ccc(-c4cnn(-c5ccccc5)c4)cc32)c(C)c1C(=O)N1CCN(C)CC1 | 3.62

Tested on: A549
Assay: Cytotoxic activity against human A549 cancer stem cells incubated for 72 hrs by Cell-titer-Glo luminescence assay
Type: functional, cell-based
Conditions: A549, 72 h

Compound | IC50 [µM]
CCN(CC)CCNC(=O)c1c(C)[nH]c(/C=C2\C(=O)Nc3cc(-c4ccc(-c5ccccc5)cn4)ccc32)c1C | 4.93
Cc1cc(C)c(/C=C2\C(=O)Nc3ccc(-c4cnc5cccnn45)cc32)[nH]1 | 8.66
CCN(CC)CCNC(=O)c1c(C)[nH]c(/C=C2\C(=O)Nc3cc(-c4ccc(-c5ccccc5)nc4)ccc32)c1C | 3.59
Cc1cc(C)c(/C=C2\C(=O)Nc3cc(-c4cnc5ccccc5n4)ccc32)[nH]1 | 5.83
Cc1cc(C)c(/C=C2\C(=O)Nc3ccc(-c4cccc5ncccc45)cc32)[nH]1 | 40
CCN(CC)CCNC(=O)c1c(C)[nH]c(/C=C2\C(=O)Nc3ccc(-c4csc(-c5ccc(CCC(=O)O)cc5)n4)cc32)c1C | 4.21
O=C1Nc2ccc(-c3csc(-c4ccccc4)n3)cc2/C1=C/c1cnc[nH]1 | 0.9
Cc1ccc(-c2nc(-c3ccc4c(c3)/C(=C/c3[nH]c(C)c(C(=O)N5CCN(C)CC5)c3C)C(=O)N4)cs2)cc1 | 0.45
Cc1[nH]c(/C=C2\C(=O)Nc3ccc(-c4cnn(-c5ccccc5)c4)cc32)c(C)c1C(=O)N1CCN(C)CC1 | 4.49

Tested on: ACHN
Assay: Cytotoxic activity against human ACHN cancer stem cells incubated for 72 hrs by Cell-titer-Glo luminescence assay
Type: functional, cell-based
Conditions: not given

Compound | IC50 [µM]
Cc1cc(C)c(/C=C2\C(=O)Nc3ccc(-c4ncccc4C)cc32)[nH]1 | 0.01
Cc1[nH]c(/C=C2\C(=O)Nc3ccc(-c4csc(-c5ccccc5)n4)cc32)c(C)c1S(=O)(=O)N1CCCC1 | 5.05
CCN(CC)CCNC(=O)c1c(C)[nH]c(/C=C2\C(=O)Nc3cc(-c4nccc5ccccc45)ccc32)c1C | 1.91
CCN(CC)CCNC(=O)c1c(C)[nH]c(/C=C2\C(=O)Nc3cc(-c4ccc(-c5ccccc5)cn4)ccc32)c1C | 2.88
CCN(CC)CCNC(=O)c1c(C)[nH]c(/C=C2\C(=O)Nc3cc(-c4ccc(-c5ccccc5)nc4)ccc32)c1C | 0.21
Cc1cc(C)c(/C=C2\C(=O)Nc3cc(-c4cnc5ccccc5n4)ccc32)[nH]1 | 2.54
Cc1cc(C)c(/C=C2\C(=O)Nc3ccc(-c4cnsc4)cc32)[nH]1 | 17.1

Tested on: A549
Assay: Cytotoxic activity against human A549 bulk cells incubated for 72 hrs by Cell-titer-Glo luminescence assay
Type: functional, cell-based
Conditions: A549, 72 h

Compound | IC50 [µM]
Cc1cc(C)c(/C=C2\C(=O)Nc3ccc(-c4ncccc4C)cc32)[nH]1 | 22.4
Cc1[nH]c(/C=C2\C(=O)Nc3ccc(-c4csc(-c5ccccc5)n4)cc32)c(C)c1S(=O)(=O)N1CCCC1 | 2.86
CCN(CC)CCNC(=O)c1c(C)[nH]c(/C=C2\C(=O)Nc3cc(-c4nccc5ccccc45)ccc32)c1C | 7.14
Cc1cc(C)c(/C=C2\C(=O)Nc3ccc(-c4cnc5cccnn45)cc32)[nH]1 | 12.5
CCN(CC)CCNC(=O)c1c(C)[nH]c(/C=C2\C(=O)Nc3cc(-c4ccc(-c5ccccc5)nc4)ccc32)c1C | 14.8
Cc1cc(C)c(/C=C2\C(=O)Nc3cc(-c4cnc5ccccc5n4)ccc32)[nH]1 | 18.2
Cc1cc(C)c(/C=C2\C(=O)Nc3ccc(-c4cccc5ncccc45)cc32)[nH]1 | 11.1
O=C1Nc2ccc(-c3csc(-c4ccccc4)n3)cc2/C1=C/c1cnc[nH]1 | 11.2
Cc1ccc(-c2nc(-c3ccc4c(c3)/C(=C/c3[nH]c(C)c(C(=O)N5CCN(C)CC5)c3C)C(=O)N4)cs2)cc1 | 8.55
Cc1[nH]c(/C=C2\C(=O)Nc3ccc(-c4cnn(-c5ccccc5)c4)cc32)c(C)c1C(=O)N1CCN(C)CC1 | 6.91

Tested on: ACHN
Assay: Cytotoxic activity against human ACHN bulk cells incubated for 72 hrs by Cell-titer-Glo luminescence assay
Type: functional, cell-based
Conditions: not given

Compound | IC50 [µM]
Cc1cc(C)c(/C=C2\C(=O)Nc3ccc(-c4ncccc4C)cc32)[nH]1 | 7.95
Cc1[nH]c(/C=C2\C(=O)Nc3ccc(-c4csc(-c5ccccc5)n4)cc32)c(C)c1S(=O)(=O)N1CCCC1 | 12.6
CCN(CC)CCNC(=O)c1c(C)[nH]c(/C=C2\C(=O)Nc3cc(-c4nccc5ccccc45)ccc32)c1C | 6.51
Cc1cc(C)c(/C=C2\C(=O)Nc3ccc(-c4cccc5ncccc45)cc32)[nH]1 | 13.2
O=C1Nc2ccc(-c3csc(-c4ccccc4)n3)cc2/C1=C/c1cnc[nH]1 | 8.74
Cc1cc(C)c(/C=C2\C(=O)Nc3ccc(-c4cnsc4)cc32)[nH]1 | 42.8
Cc1ccc(-c2nc(-c3ccc4c(c3)/C(=C/c3[nH]c(C)c(C(=O)N5CCN(C)CC5)c3C)C(=O)N4)cs2)cc1 | 4.25
Cc1[nH]c(/C=C2\C(=O)Nc3ccc(-c4cnn(-c5ccccc5)c4)cc32)c(C)c1C(=O)N1CCN(C)CC1 | 3.4
